These results are taken from patent publication US9421237B2, “Tripeptide boronic acid or boronic ester, preparative method and use thereof” (PEKING UNIVERSITY, priority 2009, dated 2016).

Some results are limits rather than exact numbers.

Series [1] has as its target T1, 20S proteasome extracted from rat liver, chymotryptic-like (CT-L) activity (Rattus norvegicus, UniProt P18421+P28075).
T1 construct: 20S proteasome extracted from rat liver; from tissue; host or cells: rat liver
The series is described as follows: Proteasome inhibition, chymotryptic-like (CT-L) activity, fluorescent peptide Suc-leu-leu-Val-Tyr-AMC. In kind it is biochemical. As to conditions: rat liver 20S proteasome, 37° C., 1 h. The protocol: (§1) The activities of the proteasome were assayed using fluorescent peptides: Suc-leu-leu-Val-Tyr-AMC (Suc represents succinyl, and AMC represents 7-amino-4-methylcoumarin, purchased from SIGMA) for determining chymotryptic-like (CT-L) activity; Z-Ala-Arg-Arg-AMC (Z represents benzyloxycarbonyl, purchased from Calbiochem) for determining trypsin-like (TL) activity; and Z-leu-leu-Glu-βNA (βNA represents β-naphtylamide, purchased from SIGMA) for determining peptidyl-glutamyl-peptide-hydrolyzing (PGPH) enzyme activity.
(§2) Method for the aforesaid activity assays is as follows: 1 μg of 20S proteasome extracted from rat liver was incubated with a 100 μL solution containing various concentrations of compounds, 50 μM fluorescent peptides and 20 mM Tris-HCl at 37° C. for 1 h, respectively. The fluorescence released from AMC and RNA reagents was measured by a spectrofluorimeter Fluostar OPTIMA and BMG Germany at excitation/emission wavelengths of 380/440 nm and 335/410 nm, respectively. 0.1% DMSO was used as a solvent control. Compared with the fluorescence of solvent control, an inhibition rate was calculated.

Series [2] concerns the target T2, 20S proteasome extracted from rat liver, trypsin-like (TL) activity (Rattus norvegicus, UniProt P40112+Q9JHW0).
T2 construct: 20S proteasome extracted from rat liver; from tissue; host or cells: rat liver
As to the kind of experiment: Proteasome inhibition, trypsin-like (TL) activity, fluorescent peptide Z-Ala-Arg-Arg-AMC. In kind it is biochemical. The note with it: rat liver 20S proteasome, 37° C., 1 h; read-out: T-L (IC50). The protocol: as §1
as §2, with “calculated. Said assays used anticancer drug bortezomib (leukemia drug), namely PS341 as compound for positive control.” for “calculated.”

Series [3] has as its target T3, 20S proteasome extracted from rat liver, peptidyl-glutamyl-peptide-hydrolyzing (PGPH) enzyme activity (Rattus norvegicus, UniProt P28073+Q9JHW0).
T3 construct: 20S proteasome extracted from rat liver; from tissue; host or cells: rat liver
As to the kind of experiment: Proteasome inhibition, PGPH activity, fluorescent peptide Z-leu-leu-Glu-βNA. The series is classed as biochemical. The note with it: rat liver 20S proteasome, 37° C., 1 h. The protocol:
as §1
as §2, with “calculated. Said assays used anticancer drug bortezomib (leukemia drug), namely PS341 as compound for positive control.” for “calculated.”

Series [4] concerns HL-60 human leukemia cell. As to the kind of experiment: Preliminary anti-tumor screening in vitro, MTT method. The arrangement: key to Test results: +++: inhibition rates at three doses are greater than 50%; ++: inhibition rates at two doses are greater than 50%; +: inhibition rate at one dose is greater than 50%. As to conditions: HL-60, MTT; for Test results: number of doses with inhibition > 50%; for inhibition at 0.05 µM / inhibition at 0.5 µM / inhibition at 5 µM: Homo sapiens, read-out: Inhibition rate %. In kind it is cell-based. The protocol: (§3) The test methods used in this test example is the routine method for anti-tumor activities test in pharmaceutical area, for example, referring to the following reference: (J. Immunol Method, 1983, 65, 55).
(§4) Test models: A: MTT method (HL-60 human leukemia); B: SRB method (BGC-823 human gastric cancer); C: SRB method (Bel-7402 human hepatocarcinoma); D: SRB method (KB human nasopharyngeal carcinoma).
(§5) The aforesaid tests were carried out with the compounds of Examples 1-26 in the present invention, test results are shown in Tables 2-5.
In general terms: Tetrazolium assays rely on reduction of a dye to a coloured formazan, in cell work by metabolically active cells.

The test system of series [5] is BGC-823 human gastric cancer cell. As to the kind of experiment: Preliminary anti-tumor screening in vitro, SRB method. In kind it is cell-based. The arrangement: key to Test results: +++: inhibition rates at three doses are greater than 50%; ++: inhibition rates at two doses are greater than 50%; +: inhibition rate at one dose is greater than 50%. The note with it: BGC-823, SRB; for Test results: number of doses with inhibition > 50%; for inhibition at 0.05 µM / inhibition at 0.5 µM / inhibition at 5 µM: Homo sapiens, read-out: Inhibition rate %. The protocol: as §3, §4, §5

The subject of series [6] is Bel-7402 human hepatocarcinoma cell. The description is as above. The series is classed as cell-based. On the set-up: key to Test results: +++: inhibition rates at three doses are greater than 50%; ++: inhibition rates at two doses are greater than 50%; +: inhibition rate at one dose is greater than 50%. As to conditions: Bel-7402, SRB; for Test results: number of doses with inhibition > 50%; for inhibition at 0.05 µM / inhibition at 0.5 µM / inhibition at 5 µM: Homo sapiens, read-out: Inhibition rate %. The protocol:
as §3, §4, §5

Series [7] concerns KB human nasopharyngeal carcinoma cell. The series is described as above. The series is classed as cell-based. The note with it: for inhibition at 0.05 µM / inhibition at 0.5 µM / inhibition at 5 µM: Homo sapiens, read-out: Inhibition rate %; for Test results: number of doses with inhibition > 50%. On the set-up: key to Test results: +++: inhibition rates at three doses are greater than 50%; ++: inhibition rates at two doses are greater than 50%; +: inhibition rate at one dose is greater than 50%. The protocol:
as §3, §4, §5

In series [8] the test system is BGC-823 (human gastric carcinoma cell strain). As to the kind of experiment: In vitro anti-tumor activity (IC50), standard MTT method. In kind it is cell-based. The note with it: 72 h, average of three determinations. The protocol: (§6) HL-60, BXPC-3 and U266 were obtained from the American Type Culture Collection (Manassas, Va.), and BGC-823 (human gastric carcinoma cell strain) was obtained from China Pharmaceutical University.
(§7) Test methods: HL-60 cells were cultured in IMDM medium containing 20% fetal bovine serum at 37° C. in 5% CO2; BGC-823 cells and BXPC-3 cells were cultured in RPMI1640 medium containing 10% fetal bovine serum at 37° C. in 5% CO2; U266 cells were cultured in RPMI1640 medium containing 15% fetal bovine serum at 37° C. in 5% CO2.
(§8) The cell growth was measured by the standard MTT method. A dispersions (150 μL, containing 3000 cells) medium was added into each well of a 96-well plate and allowed to grow, after 24 h, ten kinds of medium (50 μL) containing different concentrations of drugs were added into the corresponding wells, and continued to incubate for 72 h. Then a solution containing 5 mg/ml MTT (20 μL) was added into each well and incubated for another 4 h at 37° C. The plate was then centrifugated at 1000 rpm at 4° C. for 5 min, and the medium in upper layer was carefully discarded. The precipitates were dissolved in 100 μL of DMSO, and absorbance was read with an Infinite M200 (Tecan, Austria) microplate reader at 540 nm.
(§9) The result was expressed as IC50 value, which is the average value of three independent determinations.

Series [9] concerns BXPC-3 (human pancreatic cancer cell strain). The description is as above. The note with it: 72 h, average of three determinations. The series is classed as cell-based. The protocol:
as §6, §7, §8, §9

Series [10] has as its system HL-60 (promyelocytic leukemia cell strain). Described as above. In kind it is cell-based. As to conditions: Homo sapiens, 72 h, average of three determinations. The protocol:
as §6, §7, §8, §9

The subject of series [11] is U266 (multiple myeloma cell strain). Described as above. In kind it is cell-based. The note with it: Homo sapiens, U-266, 72 h, average of three determinations. The protocol: as §6, §7, §8, §9

What is called IC50 is the concentration that inhibits the measured activity by half. Broadly, the inhibition is the change of the read-out against control, counted positive when it falls. As usually defined, the melting point is the temperature of the solid-liquid transition. As to `CC(C)C[C@H](NC(=O)[C@H](Cc1ccc(O)cc1)NC(=O)[C@H](Cc1ccccc1)NC(=O)c1cnccn1)B(O)O` [Compound 6c, N-pyrazineformyl-L-phenylalanyl-L-tyrosyl-L-leucine Boronic Acid], the melting point lay within 298 to 300 °C. This compound came in with an IC50 in series [1] of 0.000395 ± 3.5e-05 µM. Further, the half-inhibitory concentration (IC50) in series [2] is over 0.02 µM. Besides, the half-inhibitory concentration (IC50) in [3] turned out to be 0.00401 ± 0.00147 µM. In addition, in series [4], the Test results is given as “+”, the inhibition at 0.05 µM is -16.1%, the inhibition at 0.5 µM was -8.48% and the inhibition at 5 µM came out at 65%. In addition, in series [5], the Test results is given as “+”, the inhibition at 0.05 µM is 2.64%, the inhibition at 0.5 µM was 25.1% and the inhibition at 5 µM turned out to be 97.7%. Besides, in series [6], the Test results is reported as “+”, the inhibition at 0.05 µM is -2.64%, the inhibition at 0.5 µM is -4.84% and the inhibition at 5 µM is 71.2%. Besides, in series [7], the inhibition at 0.05 µM was -13.6%, the inhibition at 0.5 µM was -5.16%, the inhibition at 5 µM came to 95.4% and the Test results is “+”. Moreover, half-maximal inhibition in series [8] (IC50) required 5.14 µM. Moreover, in [9], 0.445 µM corresponded to half-maximal inhibition (IC50). Also, 0.552 µM corresponded to half-maximal inhibition in [10] (IC50). For the same compound, in series [11], the IC50 is 0.25 µM.

Regarding `CC(C)C[C@H](NC(=O)[C@H](Cc1ccccc1)NC(=O)[C@H](Cc1ccc(O)cc1)NC(=O)c1cnccn1)B(O)O` [Compound 6d, N-pyrazineformyl-L-tyrosyl-L-phenylalanyl-L-leucine Boronic Acid], the melting point was in the range of 219 to 221 °C. In [1], the IC50 is 0.000263 ± 8.1e-05 µM. Further, the IC50 in series [2] is over 0.02 µM. For the same compound, in series [3], the IC50 stood at 0.0025 ± 0.00149 µM. Also, in [4], the Test results is recorded as “+”, the inhibition at 0.05 µM was -21.1%, the inhibition at 0.5 µM was -5.04% and the inhibition at 5 µM was 87.9%. In series [5], the Test results is listed as “+”, the inhibition at 0.05 µM came to 4.33%, the inhibition at 0.5 µM worked out at 46.7% and the inhibition at 5 µM amounted to 97.5%. Besides, in series [6], the Test results is reported as “+”, the inhibition at 0.05 µM was found to be 1.7%, the inhibition at 0.5 µM turned out to be 8.79% and the inhibition at 5 µM was 90%. In series [7], the inhibition at 0.05 µM was 3.23%, the inhibition at 0.5 µM worked out at 17.3%, the inhibition at 5 µM was found to be 96.2% and the Test results is on record as “+”. This compound displayed a half-inhibitory concentration (IC50) in series [8] of 2.46 µM. This compound also had a concentration for half-maximal inhibition (IC50) in series [9] of 0.257 µM. This compound also came in with a half-inhibitory concentration (IC50) in [10] of 0.445 µM. The IC50 in [11] came to 0.0662 µM.

Regarding `CC(C)C[C@H](NC(=O)[C@H](CC(C)C)NC(=O)[C@H](Cc1ccc2ccccc2c1)NC(=O)c1cnccn1)B(O)O` [Compound 6m, N-pyrazineformyl-L-naphthylalanyl-L-leucyl-L-leucine Boronic Acid], the IC50 in series [1] is 0.00022 ± 7e-05 µM; in [2], over 0.02 µM; in series [3], 0.00833 ± 0.00249 µM; in [8] it was 1.72 µM; in series [9], 0.0435 µM; in series [10], 0.015 µM. Also, half-maximal inhibition in series [11] (IC50) required 0.12 µM. The Test results in [4] is given as “++”; in series [5], “+++”; in [6], “++”; in series [7], “++”. Further, the inhibition at 0.05 µM was determined as 4.61% in series [4], 60.3% in series [5], 30.3% in [6] and 40.8% in [7]. The inhibition at 0.5 µM was 85.2% in series [4], 81.9% in [5], 57.7% in series [6] and 86.4% in series [7]. For the same compound, the inhibition at 5 µM was 87.8% in [4], 97% in series [5], 95.2% in series [6] and 94.7% in series [7].

Regarding `CC(C)C[C@H](NC(=O)[C@H](Cc1ccc2ccccc2c1)NC(=O)[C@H](Cc1ccc2ccccc2c1)NC(=O)c1cnccn1)B(O)O` [Compound 6h, N-pyrazineformyl-L-naphthylalanyl-L-naphthylalanyl-L-leucine Boronic Acid], the melting point was in the range of 145 to 146 °C. Further, the IC50 in [1] was found to be 0.000335 ± 7.8e-05 µM. Besides, the IC50 in series [2] was over 0.02 µM. In [4], the Test results was “++”, the inhibition at 0.05 µM turned out to be 13.6%, the inhibition at 0.5 µM came to 85.7% and the inhibition at 5 µM was determined as 88.3%. In series [5], the Test results is listed as “++”, the inhibition at 0.05 µM came out at 44.9%, the inhibition at 0.5 µM was 88.1% and the inhibition at 5 µM was found to be 97.6%. In [6], the Test results was “+”, the inhibition at 0.05 µM came out at 6.61%, the inhibition at 0.5 µM stood at 49.8% and the inhibition at 5 µM worked out at 94.8%. Besides, in series [7], the inhibition at 0.05 µM came to 14.2%, the inhibition at 0.5 µM is 91.8%, the inhibition at 5 µM stood at 97.4% and the Test results is “++”. The compound also had an IC50 in series [8] of 2.45 µM. This compound came in with an IC50 in series [9] of 0.0333 µM. The compound also had a 50% inhibitory concentration (IC50) in series [10] of 0.0196 µM. The compound also yielded an IC50 in series [11] of 0.195 µM.
